Experimental data taken from US11554171B2, “Compounds and methods for the targeted degradation of bromodomain-containing proteins” (Arvinas Operations, Inc., priority 2015, dated 2023).

Tested on: c-myc in 22RV-1 cells
Experiment: Human c-myc ELISA assay
Type: cell-based
Details: Homo sapiens; for Emax: 22Rv1, 18 h, read-out: Degradation of BRD4: Maximum inhibition (%) c-Myc ELISA in 22RV1 cells; for DC50: 22Rv1, read-out: Degradation of BRD4: DC50 (uM) c-Myc ELISA in 22RV1 cells
Procedure, shortened: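 c-myc levels measured by ELISA in RIPA lysates of 22RV-1 cells, calibrated with a 333-0 pg/ml standard curve. Lysates came from cells exposed for 18 h to an 8-point, 1:3 dose series starting at 300 nM or 1 μM final in 0.1% DMSO. Suppression potency given as DC50.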

Structure (SMILES)	Emax [%]	DC50 [µM]
Cc1ncsc1-c1ccc([C@H](C)NC(=O)[C@@H]2C[C@@H](O)CN2C(=O)[C@@H](NC(=O)CN2CCN(C3CC4(C3)CN(C(=O)C[C@@H]3N=C(c5ccc(Cl)cc5)c5c(sc(C)c5C)-n5c(C)nnc53)C4)[C@H](C)C2)C(C)(C)C)cc1 [Example 355]	100	0.01 to 0.1
Cc1ncsc1-c1ccc([C@H](C)NC(=O)[C@@H]2C[C@@H](O)CN2C(=O)[C@@H](NC(=O)c2ccc(OCCCCNC(=O)C[C@@H]3N=C(c4ccc(Cl)cc4)c4c(sc(C)c4C)-n4c(C)nnc43)cn2)C(C)(C)C)cc1 [Example 115]	100	< 0.01
Cc1ncsc1-c1ccc(CNC(=O)[C@@H]2C[C@@H](O)CN2C(=O)[C@@H](NC(=O)COCCCSCCNC(=O)C[C@@H]2N=C(c3ccc(Cl)cc3)c3c(sc(C)c3C)-n3c(C)nnc32)C(C)(C)C)cc1 [Example 100]	99	0.01 to 0.1
Cc1ncsc1-c1ccc(CNC(=O)[C@@H]2C[C@@H](O)CN2C(=O)[C@@H](NC(=O)COCCC[S+]([O-])CCNC(=O)C[C@@H]2N=C(c3ccc(Cl)cc3)c3c(sc(C)c3C)-n3c(C)nnc32)C(C)(C)C)cc1 (stereo partly drawn) [Example 112]	26.8	> 1
Cc1ncsc1-c1ccc([C@H](C)NC(=O)[C@@H]2C[C@@H](O)CN2C(=O)[C@H](NC(=O)CN2CCC(O[C@H]3C[C@H](NC(=O)C[C@@H]4N=C(c5ccc(Cl)cc5)c5c(sc(C)c5C)-n5c(C)nnc54)C3)CC2)C(C)(C)C)cc1 [Example 348]	46	> 1
Cc1ncsc1-c1ccc(CNC(=O)[C@@H]2C[C@@H](O)CN2C(=O)[C@@H](NC(=O)COCCCS(=O)(=O)CCNC(=O)C[C@@H]2N=C(c3ccc(Cl)cc3)c3c(sc(C)c3C)-n3c(C)nnc32)C(C)(C)C)cc1 [Example 101]	88.3	0.1 to 1
Cc1ncsc1-c1ccc([C@H](C)NC(=O)[C@@H]2C[C@@H](O)CN2C(=O)[C@@H](NC(=O)c2cc3cc(O[C@H]4C[C@H](NC(=O)C[C@@H]5N=C(c6ccc(Cl)cc6)c6c(sc(C)c6C)-n6c(C)nnc65)C4)ccc3o2)C(C)(C)C)cc1 [Example 207, (2S,4R)-1-[(2S)-3,3-dimethyl-2-({5-[(1,3trans)-3-{2-[(9S)-7-(4-chlorophenyl)-4,5,13-trimethyl-3-thia-1,8,11,12-tetraazatricyclo[8.3.0.0^2,^6]trideca-2(6),4,7,10,12-pentaen-9-yl]acetamido}cyclobutoxy]-1-benzofuran-2-yl}formamido)butanoyl]-4-hydroxy-N-[(1S)-1-[4-(4-methyl-1,3-thiazol-5-yl)phenyl]ethyl]pyrrolidine-2-carboxamide]	89.5	< 0.01
Cc1ncsc1-c1ccc([C@H](C)NC(=O)[C@@H]2C[C@@H](O)CN2C(=O)[C@@H](NC(=O)c2ccc(OCCCNC(=O)C[C@@H]3N=C(c4ccc(Cl)cc4)c4c(sc(C)c4C)-n4c(C)nnc43)cc2)C(C)(C)C)cc1 [Example 132, (2S,4R)-1-[(2S)-2-{[4-(3-{2-[(9S)-7-(4-chlorophenyl)-4,5,13-trimethyl-3-thia-1,8,11,12-tetraazatricyclo[8.3.0.0^2,^6]trideca-2(6),4,7,10,12-pentaen-9-yl]acetamido}propoxy)phenyl]formamido}-3,3-dimethylbutanoyl]-4-hydroxy-N-[(1S)-1-[4-(4-methyl-1,3-thiazol-5-yl)phenyl]ethyl]pyrrolidine-2-carboxamide]	99	< 0.01
Cc1ncsc1-c1ccc([C@H](C)NC(=O)[C@@H]2C[C@@H](O)CN2C(=O)[C@@H](C(C)C)n2cc(-c3ccnc(O[C@H]4C[C@@H](NC(=O)C[C@@H]5N=C(c6ccc(Cl)cc6)c6c(sc(C)c6C)-n6c(C)nnc65)C4)c3)cn2)cc1 [Example 218, (2S,4R)-4-hydroxy-N-[(1S)-1-[4-(4-methyl-1,3-thiazol-5-yl)phenyl]ethyl]-1-[(2R)-3-methyl-2-(4-{2-1[(1,3-cis)-3-{2-[(9S)-7-(4-chlorophenyl)-4,5,13-trimethyl-3-thia-1,8,11,12-tetraazatricyclo[8.3.0.0^2,^6]trideca-2(6),4,7,10,12-pentaen-9-yl]acetamido}cyclobutoxy]pyridin-4-yl}-1H-pyrazol-1-yl)butanoyl]pyrrolidine-2-carboxamide]	48	> 1
Cc1ncsc1-c1ccc([C@H](CO)NC(=O)[C@@H]2C[C@@H](O)CN2C(=O)[C@@H](NC(=O)CN2CCC(O[C@H]3C[C@H](NC(=O)C[C@@H]4N=C(c5ccc(Cl)cc5)c5c(sc(C)c5C)-n5c(C)nnc54)C3)CC2)C(C)(C)C)cc1 [Example 351, (2S,4R)-1-[(2S)-3,3-dimethyl-2-(2-{4-[(1,3-trans)-3-{2-[(9S)-7-(4-chlorophenyl)-4,5,13-trimethyl-3-thia-1,8,11,12-tetraazatricyclo[8.3.0.0^2,^6]trideca-2(6),4,7,10,12-pentaen-9-yl]acetamido}cyclobutoxy]piperidin-1-yl}acetamido)butanoyl]-4-hydroxy-N-[(1R)-2-hydroxy-1-[4-(4-methyl-1,3-thiazol-5-yl)phenyl]ethyl]pyrrolidine-2-carboxamide]	100	< 0.01
Cc1ncsc1-c1ccc([C@H](C)NC(=O)[C@@H]2C[C@@H](O)CN2C(=O)[C@@H](NC(=O)COc2cccc(OCCNC(=O)C[C@@H]3N=C(c4ccc(Cl)cc4)c4c(sc(C)c4C)-n4c(C)nnc43)c2)C(C)(C)C)cc1 [Example 127, (2S,4R)-1-[(2S)-2-{2-[3-(2-{2-[(9S)-7-(4-chlorophenyl)-4,5,13-trimethyl-3-thia-1,8,11,12-tetraazatricyclo[8.3.0.0^2,^6]trideca-2(6),4,7,10,12-pentaen-9-yl]acetamido}ethoxy)phenoxy]acetamido}-3,3-dimethylbutanoyl]-4-hydroxy-N-[(1S)-1-[4-(4-methyl-1,3-thiazol-5-yl)phenyl]ethyl]pyrrolidine-2-carboxamide]	99	< 0.01
Cc1ncsc1-c1ccc(CNC(=O)[C@@H]2C[C@@H](O)CN2C(=O)[C@@H](NC(=O)COCCOCCOCCCCNC(=O)C[C@@H]2N=C(c3ccc(Cl)cc3)c3c(sc(C)c3C)-n3c(C)nnc32)C(C)(C)C)cc1 [Example 51, (2S,4R)-1-[(2S)-2-(2-{2-[2-(4-{2-[(9S)-7-(4-chlorophenyl)-4,5,13-trimethyl-3-thia-1,8,11,12-tetraazatricyclo[8.3.0.0^2,^6]trideca-2(6),4,7,10,12-pentaen-9-yl]acetamido}butoxy)ethoxy]ethoxy}acetamido)-3,3-dimethylbutanoyl]-4-hydroxy-N-{[4-(4-methyl-1,3-thiazol-5-yl)phenyl]methyl}pyrrolidine-2-carboxamide]	97	< 0.01
Cc1ncsc1-c1ccc([C@H](C)NC(=O)[C@@H]2C[C@@H](O)CN2C(=O)[C@@H](NC(=O)CCc2ccc(O[C@H]3C[C@H](NC(=O)C[C@@H]4N=C(c5ccc(Cl)cc5)c5c(sc(C)c5C)-n5c(C)nnc54)C3)nc2)C(C)(C)C)cc1 [Example 172]	96	< 0.01
Cc1ncsc1-c1ccc(CNC(=O)[C@@H]2C[C@@H](O)CN2C(=O)[C@H](C(C)C)n2cc(-c3ccnc(O[C@H](C)CNC(=O)C[C@@H]4N=C(c5ccc(Cl)cc5)c5c(sc(C)c5C)-n5c(C)nnc54)c3)cn2)cc1 [Example 168]	92	0.01 to 0.1
Cc1ncsc1-c1ccc(CNC(=O)[C@@H]2C[C@@H](O)CN2C(=O)[C@@H](NC(=O)COCCCOc2ccc(-c3cnc(NC(=O)C[C@@H]4N=C(c5ccc(Cl)cc5)c5c(sc(C)c5C)-n5c(C)nnc54)cn3)cc2)C(C)(C)C)cc1 [Example 21, (2S,4R)-1-[(2S)-2-(2-{3-[4-(5-{2-[(9S)-7-(4-chlorophenyl)-4,5,13-trimethyl-3-thia-1,8,11,12-tetraazatricyclo[8.3.0.0^2,^6]trideca-2(6),4,7,10,12-pentaen-9-yl]acetamido}pyrazin-2-yl)phenoxy]propoxy}acetamido)-3,3-dimethylbutanoyl]-4-hydroxy-N-{[4-(4-methyl-1,3-thiazol-5-yl)phenyl]methyl}pyrrolidine-2-carboxamide]	91	0.01 to 0.1
Cc1ncsc1-c1ccc([C@H](C)NC(=O)[C@@H]2C[C@@H](O)CN2C(=O)[C@@H](NC(=O)CCc2cc(F)cc(O[C@H](C)CNC(=O)C[C@@H]3N=C(c4ccc(Cl)cc4)c4c(sc(C)c4C)-n4c(C)nnc43)c2)C(C)(C)C)cc1 [Example 203]	92	< 0.01
Cc1ncsc1-c1ccc([C@H](C)NC(=O)[C@@H]2C[C@@H](O)CN2C(=O)[C@@H](NC(=O)c2cc3cc(O[C@@H](C)CNC(=O)C[C@@H]4N=C(c5ccc(Cl)cc5)c5c(sc(C)c5C)-n5c(C)nnc54)ccc3o2)C(C)(C)C)cc1 [Example 205, (2S,4R)-1-[(2S)-2-[(5-{[(2S)-1-{2-[(9S)-7-(4-chlorophenyl)-4,5,13-trimethyl-3-thia-1,8,11,12-tetraazatricyclo[8.3.0.0^2,^6]trideca-2(6),4,7,10,12-pentaen-9-yl]acetamido}propan-2-yl]oxy}-1-benzofuran-2-yl)formamido]-3,3-dimethylbutanoyl]-4-hydroxy-N-[(1S)-1-[4-(4-methyl-1,3-thiazol-5-yl)phenyl]ethyl]pyrrolidine-2-carboxamide]	91	< 0.01
Cc1ncsc1-c1ccc(CNC(=O)[C@@H]2C[C@@H](O)CN2C(=O)[C@@H](NC(=O)COCCOCCOCCNC(=O)CC2N=C(c3ccc(Cl)cc3)c3c(sc(C)c3C)-n3c(C)nnc32)C(C)(C)C)cc1 (stereo partly drawn) [Example 98]	100	0.01 to 0.1
